Consider one compound from patent US8334409B2, “Process for purifying rasagiline base” (Teva Pharmaceutical Industries, Ltd., priority 2008, dated 2012).

The conditions of series [1]: alcohols, acetone, ethyl acetate, toluene, diethyl ether, dioxane, hexane and n-heptane.
For series [2] the following is noted: low levels of volatiles (water and residual solvents) by KF and TGA.

Each structure is given as a SMILES string.

In the case of `C#CCN[C@@H]1CCc2ccccc21` [rasagiline base, R(+)-N-propargyl-1-aminoindan], in series [1], the “solubility in polar and non-polar organic solvents” value is reported as “freely soluble”. Moreover, in series [2], the hygroscopicity entry is given as “not hygroscopic”.
